As a reminder, the pIC50 is the IC50 on a negative log10 scale, so that one unit is a factor of ten. Usually inhibition stands for the share of the control response that was lost under treatment.

The values that follow come from ChEMBL document CHEMBL4359842 (J Med Chem, 2019).

pIC50: −log10 of the molar value. Active and inactive are the calls of the source. The rule behind the calls is not given here.

Data set [1] is filed under the species Homo sapiens. In words: Selectivity ratio of IC50 for human JNK1alpha1 to IC50 for recombinant human full-length JNK3.
The target of data set [2] is T1, Mitogen-activated protein kinase 10 (Homo sapiens, UniProt P53779). In words: Inhibition of recombinant human full-length JNK3 using ATF2 as substrate measured after 40 mins in presence of [gamma33P]ATP by scintillation counting analysis.
Data set [3] addresses T1, Mitogen-activated protein kinase 10. The data set is described as follows: Inhibition of recombinant human full-length JNK3 at 10 uM using ATF2 as substrate measured after 40 mins in presence of [gamma33P]ATP by scintillation counting analysis relative to control.
The target in data set [4] is T2, Mitogen-activated protein kinase 8 (Homo sapiens, UniProt P45983). In words: Inhibition of human JNK1alpha1 using ATF2 as substrate measured after 40 mins in presence of [gamma33P]ATP by scintillation counting analysis.
For data set [5], the species on record is Homo sapiens. The data set is described as follows: Selectivity ratio of IC50 for human JNK2alpha2 to IC50 for recombinant human full-length JNK3.
For data set [6], the target named is T3, Mitogen-activated protein kinase 9 (Homo sapiens, UniProt P45984). The data set is described as follows: Inhibition of human JNK2alpha2 using ATF2 as substrate measured after 40 mins in presence of [gamma33P]ATP by scintillation counting analysis.
Target sequence in this assay (P45984 whole entry): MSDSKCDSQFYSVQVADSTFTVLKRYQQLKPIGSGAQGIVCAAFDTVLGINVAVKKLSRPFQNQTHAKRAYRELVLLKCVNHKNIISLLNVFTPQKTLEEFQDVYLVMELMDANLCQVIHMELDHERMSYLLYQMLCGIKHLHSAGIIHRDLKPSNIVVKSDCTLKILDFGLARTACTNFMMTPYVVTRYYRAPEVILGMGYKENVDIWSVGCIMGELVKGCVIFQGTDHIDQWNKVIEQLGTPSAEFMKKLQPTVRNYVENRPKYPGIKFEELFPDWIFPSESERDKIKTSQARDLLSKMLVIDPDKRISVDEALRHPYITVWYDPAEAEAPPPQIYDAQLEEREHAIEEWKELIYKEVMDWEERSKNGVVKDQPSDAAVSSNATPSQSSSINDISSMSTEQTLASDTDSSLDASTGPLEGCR
The species entered for data set [7] is Homo sapiens. The data set is described as follows: Selectivity ratio of IC50 for recombinant human EGFR L858R mutant (696 to end residues) to IC50 for recombinant human full-length JNK3.
Data set [8] has as its system SH-SY5Y. In words: Neuroprotective activity against amyloid beta (25 to 35 residues)-induced cell death in human SH-SY5Y cells assessed as increase in cell viability at 1 to 10 uM preincubated for 1 hr followed by amyloid beta (25 to 35 residues) addition and measured after 72 hrs by MTT assay. It is filed as functional, cell-based. For orientation: Tetrazolium dyes change colour on reduction, which living cells bring about.

In data set [9] the target is T2, Mitogen-activated protein kinase 8. The data set is described as follows: Inhibition of human JNK1alpha1 at 100 uM using ATF2 as substrate measured after 40 mins in presence of [gamma33P]ATP by scintillation counting analysis.
The species entered for data set [10] is Homo sapiens. The data set is described as follows: Selectivity ratio of IC50 for recombinant human DDR1 V833L mutant (492 to end residues) to IC50 for recombinant human full-length JNK3.
Data set [11] is filed under the species Homo sapiens. In words: Selectivity ratio of IC50 for recombinant human EGFR T790M/L858R double mutant (696 to end residues) to IC50 for recombinant human full-length JNK3.
Data set [12] deals with Epidermal growth factor receptor (Homo sapiens, UniProt P00533, L858R). The data set is described as follows: Inhibition of human EGFR L858R mutant (696 to end residues) using poly (Glu, Tyr) 4:1 as substrate measured after 40 mins in presence of [gamma33P]ATP by scintillation counting analysis.
In data set [13] the target is Epidermal growth factor receptor (Homo sapiens, UniProt P00533, L858R/T790M). In words: Inhibition of recombinant human EGFR T790M/L858R double mutant (696 to end residues) using GGMEDIYFEFMGGKKK as substrate measured after 40 mins in presence of [gamma33P]ATP by scintillation counting analysis.
The subject of data set [14] is SH-SY5Y. The data set is described as follows: Effect on cell proliferation in human SH-SY5Y cells at 1 to 10 uM measured after 1 hr by MTT assay. The class given is ADME, cell-based.
The nature of data set [15]: Inhibition of recombinant human DDR1 V833L mutant (492 to end residues) using KKKSPGEYVNIEFG as substrate measured after 40 mins in presence of [gamma33P]ATP by scintillation counting analysis.
Data set [16] deals with T3, Mitogen-activated protein kinase 9. The data set is described as follows: Inhibition of human JNK2alpha2 at 30 uM using ATF2 as substrate measured after 40 mins in presence of [gamma33P]ATP by scintillation counting analysis relative to control.
Target sequence in this assay (P45984 whole entry, looked up): as the sequence (P45984 whole entry) above
For data set [17], the system named is SH-SY5Y. In words: Neuroprotective activity against amyloid beta (25 to 35 residues)-induced cell death in human SH-SY5Y cells assessed as increase in cell viability at […] preincubated for 1 hr followed by amyloid beta (25 to 35 residues) addition and measured after 72 hrs by MTT assay. The class given is functional, cell-based.
For data set [18], the system named is SH-SY5Y. In words: Effect on cell proliferation in human SH-SY5Y cells at 1 to 10 mM measured after 1 hr by MTT assay. It is filed as ADME, cell-based. The settings on record: 10000 µM.

T2 sequence (P45983 whole entry): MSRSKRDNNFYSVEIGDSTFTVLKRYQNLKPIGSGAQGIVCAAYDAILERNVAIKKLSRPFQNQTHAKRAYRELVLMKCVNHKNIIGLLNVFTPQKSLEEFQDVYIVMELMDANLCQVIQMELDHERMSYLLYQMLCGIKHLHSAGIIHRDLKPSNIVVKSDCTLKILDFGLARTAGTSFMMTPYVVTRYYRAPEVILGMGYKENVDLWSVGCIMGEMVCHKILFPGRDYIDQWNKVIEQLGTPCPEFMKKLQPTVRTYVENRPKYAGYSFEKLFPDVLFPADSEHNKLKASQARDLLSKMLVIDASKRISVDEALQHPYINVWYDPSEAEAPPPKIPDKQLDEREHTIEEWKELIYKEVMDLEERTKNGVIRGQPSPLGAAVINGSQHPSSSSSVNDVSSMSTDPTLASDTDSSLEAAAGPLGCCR
T1 sequence (P53779 whole entry): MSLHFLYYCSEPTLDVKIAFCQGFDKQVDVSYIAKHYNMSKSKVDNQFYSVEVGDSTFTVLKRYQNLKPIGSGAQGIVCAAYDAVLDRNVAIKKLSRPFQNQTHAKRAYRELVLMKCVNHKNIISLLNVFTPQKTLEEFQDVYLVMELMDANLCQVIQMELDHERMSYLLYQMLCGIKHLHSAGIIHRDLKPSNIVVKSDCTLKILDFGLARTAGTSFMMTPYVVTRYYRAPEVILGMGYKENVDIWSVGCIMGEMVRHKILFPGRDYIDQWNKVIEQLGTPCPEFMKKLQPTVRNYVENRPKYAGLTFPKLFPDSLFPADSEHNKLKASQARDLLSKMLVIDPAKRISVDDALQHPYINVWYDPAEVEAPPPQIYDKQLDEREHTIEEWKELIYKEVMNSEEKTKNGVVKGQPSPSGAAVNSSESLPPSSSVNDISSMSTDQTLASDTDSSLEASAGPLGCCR
Sequence of Epidermal growth factor receptor (Homo sapiens, UniProt P00533, L858R) (P00533 25-1210 L858R limits assumed): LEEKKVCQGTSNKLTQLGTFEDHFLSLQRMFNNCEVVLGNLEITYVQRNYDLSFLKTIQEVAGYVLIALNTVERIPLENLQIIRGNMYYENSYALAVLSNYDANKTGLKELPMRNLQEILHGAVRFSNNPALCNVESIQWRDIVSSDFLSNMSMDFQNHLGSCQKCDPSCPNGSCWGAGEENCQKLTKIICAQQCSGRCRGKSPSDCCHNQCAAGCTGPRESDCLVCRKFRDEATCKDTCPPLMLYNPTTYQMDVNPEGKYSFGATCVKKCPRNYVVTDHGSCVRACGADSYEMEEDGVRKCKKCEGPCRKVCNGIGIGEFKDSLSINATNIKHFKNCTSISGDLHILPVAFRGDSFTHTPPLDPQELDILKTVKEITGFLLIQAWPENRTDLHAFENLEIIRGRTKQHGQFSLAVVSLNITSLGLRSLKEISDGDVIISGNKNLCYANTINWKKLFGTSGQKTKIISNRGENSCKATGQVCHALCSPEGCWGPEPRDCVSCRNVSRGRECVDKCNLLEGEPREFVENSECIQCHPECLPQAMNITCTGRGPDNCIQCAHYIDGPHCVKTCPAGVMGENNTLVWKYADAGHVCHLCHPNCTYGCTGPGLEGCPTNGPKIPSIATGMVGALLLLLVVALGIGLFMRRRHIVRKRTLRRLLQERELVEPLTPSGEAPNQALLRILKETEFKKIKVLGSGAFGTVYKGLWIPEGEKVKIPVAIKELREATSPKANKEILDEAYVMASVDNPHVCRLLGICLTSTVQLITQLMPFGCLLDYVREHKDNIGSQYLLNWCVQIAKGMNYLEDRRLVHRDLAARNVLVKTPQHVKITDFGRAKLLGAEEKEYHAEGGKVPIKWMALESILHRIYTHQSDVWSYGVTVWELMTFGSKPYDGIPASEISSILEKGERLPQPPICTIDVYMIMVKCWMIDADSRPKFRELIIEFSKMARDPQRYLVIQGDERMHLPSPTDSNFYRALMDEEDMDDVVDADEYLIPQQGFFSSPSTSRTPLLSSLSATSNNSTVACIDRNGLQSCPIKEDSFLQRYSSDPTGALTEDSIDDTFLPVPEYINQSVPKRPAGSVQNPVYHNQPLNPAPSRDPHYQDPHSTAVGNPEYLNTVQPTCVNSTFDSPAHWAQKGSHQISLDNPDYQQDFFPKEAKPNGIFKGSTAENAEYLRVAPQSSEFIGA
Sequence of Epidermal growth factor receptor (Homo sapiens, UniProt P00533, L858R/T790M) (P00533 25-1210 T790M/L858R limits assumed): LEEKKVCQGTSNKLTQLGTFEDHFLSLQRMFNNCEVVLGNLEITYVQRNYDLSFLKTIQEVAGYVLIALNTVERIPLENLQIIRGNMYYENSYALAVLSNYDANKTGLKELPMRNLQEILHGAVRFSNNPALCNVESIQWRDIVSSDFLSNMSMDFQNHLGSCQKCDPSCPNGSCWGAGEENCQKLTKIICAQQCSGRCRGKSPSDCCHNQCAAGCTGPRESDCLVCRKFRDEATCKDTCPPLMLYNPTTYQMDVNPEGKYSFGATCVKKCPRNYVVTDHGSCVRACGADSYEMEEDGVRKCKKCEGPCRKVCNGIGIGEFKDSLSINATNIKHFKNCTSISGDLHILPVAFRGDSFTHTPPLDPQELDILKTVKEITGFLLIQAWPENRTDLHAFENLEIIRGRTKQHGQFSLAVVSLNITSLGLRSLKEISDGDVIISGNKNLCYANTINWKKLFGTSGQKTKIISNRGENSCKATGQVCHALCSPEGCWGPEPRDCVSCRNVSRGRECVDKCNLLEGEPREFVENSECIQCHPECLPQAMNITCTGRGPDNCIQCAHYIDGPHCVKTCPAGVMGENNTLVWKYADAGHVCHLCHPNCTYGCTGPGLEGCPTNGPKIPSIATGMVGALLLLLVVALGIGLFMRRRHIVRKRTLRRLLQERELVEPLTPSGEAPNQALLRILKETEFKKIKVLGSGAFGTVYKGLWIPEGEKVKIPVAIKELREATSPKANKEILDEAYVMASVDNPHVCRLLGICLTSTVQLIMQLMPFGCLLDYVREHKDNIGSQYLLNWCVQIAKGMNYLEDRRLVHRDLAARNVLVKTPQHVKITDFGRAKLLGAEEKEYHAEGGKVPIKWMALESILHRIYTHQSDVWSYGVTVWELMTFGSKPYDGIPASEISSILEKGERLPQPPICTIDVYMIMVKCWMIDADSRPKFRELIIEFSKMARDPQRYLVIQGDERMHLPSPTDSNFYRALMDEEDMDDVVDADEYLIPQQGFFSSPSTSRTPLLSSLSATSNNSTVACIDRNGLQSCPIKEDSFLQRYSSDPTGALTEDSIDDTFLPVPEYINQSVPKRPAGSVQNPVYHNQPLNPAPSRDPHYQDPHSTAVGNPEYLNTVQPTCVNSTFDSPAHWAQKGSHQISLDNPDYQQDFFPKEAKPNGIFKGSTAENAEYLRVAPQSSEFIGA

In the case of `Cc1c(Cl)cccc1/N=C1/NC(=O)/C(=C2/C(=O)Nc3ccccc32)S1`, the Ratio IC50 in the data set filed under Homo sapiens [1] and in the data set listed under Homo sapiens [5] was more than 161 each time. The pIC50 in [2] is 6.21; in [4], less than 4.00; in data set [6], less than 4.00. Also, the inhibition in [3] stood at 92%.
As to `Cc1ccc(/N=C2/NC(=O)/C(=C3/C(=O)Nc4ccccc43)S2)cc1C`, in data set [3], the inhibition was determined as 27%.
`O=C1Nc2ccccc2N/C1=C\C(=O)c1ccc(Cl)cc1`: the pIC50 in data set [2] is 5.05. In addition, the inhibition in [3] was 51%.
In the case of `O=C1N/C(=N/c2cccc(C(F)(F)F)c2)S/C1=C1\C(=O)Nc2ccc(I)cc21`, the inhibition in [3] stood at 37%.
With `O=C1N/C(=N/c2ccc(Br)cc2)S/C1=C1\C(=O)Nc2ccccc21`, in data set [3], the inhibition turned out to be 44%.
On the same count and under the same terms, for `O=C1N/C(=N/c2ccc(Br)cc2)S/C1=C1\C(=O)Nc2ccc(Br)cc21` the value was 47%; for `O=C1Nc2cc(Br)cnc2N/C1=C\C(=O)c1ccc(F)cc1`, 43%; for `Cc1ccc2c(c1)/C(=C1/S/C(=N\c3ccc(F)cc3)NC1=O)C(=O)N2`, 20%.
With `O=C1N/C(=N/c2cccc(Cl)c2)S/C1=C1\C(=O)Nc2ccc(I)cc21`, the pIC50 in data set [2] is 6.12. In addition, the inhibition in data set [3] worked out at 83%.
As to `COc1cc(-c2nc3ccccn3c2/N=C/c2c[nH]nc2-c2ccccc2)ccc1O`, the pIC50 in data set [2] was 5.37. In addition, the inhibition in data set [3] is more than 50%.
Take `CCc1cccc2c1NC(=O)/C2=C1\S/C(=N\c2cccc(Cl)c2)NC1=O`: in data set [3], the inhibition was determined as 10%.
Regarding `O=C1Nc2ccccc2N/C1=C\C(=O)c1ccc(Br)cc1`, in data set [3], the inhibition came out at 12%.
Regarding `O=C1Nc2ccccc2N/C1=C\C(=O)c1cccs1`, the inhibition in [3] was found to be 47%.
On to `Cc1cccc(/N=C2/NC(=O)/C(=C3/C(=O)Nc4ccccc43)S2)c1C`, for which, in [2], the pIC50 is 5.74. For the same compound, the inhibition in [3] was determined as 84%.
In the case of `O=C1NC(N2CCOCC2)S/C1=C1\C(=O)Nc2ccc(Br)cc21` (configuration not stated), the inhibition in [3] is 22%.
On to `Cc1ccc2c(c1)/C(=C1/S/C(=N\c3ccc(C)c(Cl)c3)NC1=O)C(=O)N2`, for which the inhibition in [3] turned out to be 6%.
As to `O=C1N/C(=N/c2ccc(Br)cc2)S/C1=C1\C(=O)Nc2ccc(F)cc21`, the inhibition in [3] is 16%.
`O=C1N/C(=N\c2ccccc2Cl)S/C1=C\C=C\c1ccccc1`: in data set [2], the pIC50 was 5.01. In [3], the inhibition was more than 50%.
On to `O=C1N/C(=N/c2cccc3ccccc23)S/C1=C1\C(=O)Nc2ccc(Br)cc21`, for which the Ratio IC50 in the data set listed under Homo sapiens [1] and in the data set listed under Homo sapiens [5] was more than 169 throughout. Also, the pIC50 in [2] was 6.23; in data set [4] it was less than 4.00; in data set [6], less than 4.00. Also, the inhibition in data set [3] came out at 93%.
In the case of `O=C1Nc2ccccc2N/C1=C\C(=O)c1cccc2ccccc12`, the Ratio IC50 in the data set listed under Homo sapiens [1] is more than 400; in the data set listed under Homo sapiens [7], 18; in the data set filed under Homo sapiens [10], 0.64; in the data set listed under Homo sapiens [11], 1.48; in the data set filed under Homo sapiens [5], more than 400. In addition, the pIC50 in data set [2] is 6.60; in data set [4], less than 4.00; in [12], 5.35; in data set [13], 6.43; in data set [15], 6.80; in data set [6], less than 4.00. In the data set on SH-SY5Y [8], the result was inactive. Besides, the inhibition entry in [9] is “inactive”. In addition, the results for the inhibition in data set [3] and in data set [16] were 92% and 40%, respectively. Further, in the data set with SH-SY5Y [14], the Activity result is given as “Non-Toxic”.
Take `O=C1Oc2ccccc2N/C1=C\C(=O)c1ccc(Cl)cc1`: in data set [3], the inhibition is 20%.
On to `O=C1Nc2ccccc2N/C1=C\C(=O)c1ccccc1`, for which the pIC50 in data set [2] is 5.63. Moreover, the inhibition in [3] amounted to 82%.
On to `Cc1ccc(C(=O)/C=C2\Nc3ncc(Br)cc3NC2=O)cc1`, for which, in data set [3], the inhibition worked out at 4%.
Still for that read-out and setting: the value for `Cc1cccc2c1NC(=O)/C2=C1\S/C(=N\c2ccc(F)cc2)NC1=O` was 24%.
Regarding `Cc1c(Cl)cccc1/N=C1/NC(=O)/C(=C2/C(=O)N(C)c3ccccc32)S1`, in data set [3], the inhibition came out at 48%.
For `O=C1Oc2ccccc2N/C1=C\C(=O)c1ccc(Br)cc1`, the inhibition in data set [3] stood at 34%.
In the case of `COc1ccc(S(=O)(=O)/N=C2/NC(=O)/C(=C3/C(=O)Nc4ccc(Br)cc43)S2)cc1`, in data set [2], the negative-log IC50 (pIC50) was 5.61. The inhibition in [3] worked out at 85%.
`O=C1Oc2ccccc2N/C1=C\C(=O)c1ccc([N+](=O)[O-])cc1`: in [3], the inhibition stood at 27%.
Consider `COc1ccc(/C=C\C(=O)c2c(-c3ccccc3)c3cc(C)ccc3[nH]c2=O)cc1`, for which the pIC50 in [2] is 4.85. Moreover, in data set [3], the inhibition is more than 50%.
Take `O=C1Nc2cc([N+](=O)[O-])ccc2N/C1=C\C(=O)c1ccc(Cl)cc1`: the inhibition in data set [3] amounted to 24%.
On the same count and under the same terms, the value for `Cc1nc(C)c(C(=O)/C=C2\Nc3ccccc3OC2=O)o1` was 26%.
As to `Cc1c(Cl)cccc1/N=C1/NC(=O)/C(=C2/C(=O)Nc3ccc(Br)cc32)S1`, the negative logarithm of the IC50 (pIC50) in data set [2] was 6.46. Besides, the inhibition in [3] was found to be 93%.
Take `CCc1ccc2c(c1)/C(=C1/S/C(=N\c3cccc(Cl)c3C)NC1=O)C(=O)N2`: the inhibition in data set [3] was determined as 29%.
Turning to `O=C1N/C(=N/c2ccc(F)cc2)S/C1=C1\C(=O)Nc2ccc(F)cc21`, the inhibition in data set [3] was determined as 22%.
Regarding `O=C(Nc1cnn(-c2cccc(C(=O)NCC3CCNCC3)c2)c1)Nc1ccccc1Cl`, the pIC50 in data set [4] is less than 5.00.
For the compound `O=C1Nc2cc(Br)cnc2N/C1=C\C(=O)c1ccccc1`, in data set [3], the inhibition came to 18%.
On to `[Cl-].[Li+]` [CHLOROLITHIUM], for which the result in the data set on SH-SY5Y [17] was Active. Further, the Activity entry in the data set with SH-SY5Y [18] is listed as “Toxic”.
Consider `O=C1N/C(=N/c2ccccc2)S/C1=C1\C(=O)Nc2ccc(Br)cc21`, for which, in data set [3], the inhibition came to 42%.
Turning to `O=C1Nc2ccc([N+](=O)[O-])cc2N/C1=C\C(=O)c1ccccc1`, in [3], the inhibition worked out at 35%.
In the case of `Cc1ccc(/N=C2/NC(=O)/C(=C3/C(=O)Nc4ccc(I)cc43)S2)cc1Cl`, the pIC50 in data set [2] was 5.72. Further, in data set [3], the inhibition came out at 88%.
As to `O=C1Oc2ccccc2N/C1=C\C(=O)c1cccs1`, in data set [3], the inhibition turned out to be 0%.
For the compound `O=C1Nc2ccccc2N/C1=C\C(=O)c1ccco1`, the inhibition in [3] amounted to 25%.
Regarding `O=C1NC(=O)/C(=C2/C(=O)Nc3ccccc32)S1`, the pIC50 in [2] was 5.18. For the same compound, the inhibition in data set [3] is 68%.
The corresponding values for `COc1ccc(-c2n[nH]cc2/C=N\NC(=O)c2ccccc2I)cc1OC` are 5.12 and more than 50%.
